The target of the assay is SARS-CoV-2 Mac1 (Severe acute respiratory syndrome coronavirus 2, UniProt P0DTD1). Briefly: biochemical. The conditions noted are these: for inhibition at 100 µM: read-out: %inhibition.

What is called inhibition is the drop in the measured response relative to a control, in per cent. What is called %inhibition is the percentage by which the read-out fell short of the control. A lower %inhibition goes with a weak effect.

Each structure is given as a SMILES string. Structures can show the parent of a compound that is named as a salt.

For `CCOC(=O)C1=C(C)NC(C)=C(C(=O)OC)C1c1cccc([N+](=O)[O-])c1` (stereo not drawn) [Nitrendipine], the inhibition at 100 µM amounted to 4.31%. As for `NC(=O)N/N=C/c1ccc([N+](=O)[O-])o1` [Nitrofural], the inhibition at 100 µM worked out at 0%. As for `O=C1CN(/N=C/c2ccc([N+](=O)[O-])o2)C(=O)N1` [Nitrofurantoin], the inhibition at 100 µM came to 4.04%. With `O=[N+]([O-])c1ccc(O)c2ncccc12` [Nitroxoline], the inhibition at 100 µM was found to be 0%. As to `CNC(=C[N+](=O)[O-])NCCSCc1csc(CN(C)C)n1` [Nizatidine], the inhibition at 100 µM worked out at 46.1%.

In the case of `CCCCCCCCC(=O)NCc1ccc(O)c(OC)c1` [Nonivamide], the inhibition at 100 µM is 1.16%. For `NC[C@H](O)c1ccc(O)c(O)c1` [Noradrenaline bitartrate monohydrate], the inhibition at 100 µM was found to be 18.9%.

As to `C#C[C@]1(O)CC[C@H]2[C@@H]3CCC4=CC(=O)CC[C@@H]4[C@H]3CC[C@@]21C` [Norethindrone], the inhibition at 100 µM is 0%. As to `CCn1cc(C(=O)O)c(=O)c2cc(F)c(N3CCNCC3)cc21` [Norfloxacin], the inhibition at 100 µM stood at 24.7%. On to `C#CC1(O)CC[C@H]2[C@@H]3CCC4=CC(=O)CC[C@@H]4[C@H]3CC[C@@]21CC` (stereo partly drawn) [Norgestrel], for which the inhibition at 100 µM is 0%. Turning to `CNCCC=C1c2ccccc2CCc2ccccc21` [Nortriptyline hydrochloride], the inhibition at 100 µM is 0%. For the molecule `OC1C[C@H]2CC[C@@H](C1)N2` (stereo partly drawn) [Nortropine Hydrochloride], the inhibition at 100 µM amounted to 6.37%.

On to `CO[C@@H]1[C@@H](OC(N)=O)[C@@H](O)[C@H](Oc2ccc3c(O)c(NC(=O)c4ccc(O)c(CC=C(C)C)c4)c(=O)oc3c2C)OC1(C)C` [Novobiocin Sodium], for which the inhibition at 100 µM was determined as 0%. For the molecule `CC[C@H]1[C@@H](O)[C@@H]2[C@H](CC[C@]3(C)[C@@H]([C@H](C)CCC(=O)O)CC[C@@H]23)[C@@]2(C)CC[C@@H](O)C[C@@H]12` [Obeticholic Acid], the inhibition at 100 µM was found to be 37.3%.

As to `CNS(=O)(=O)C[C@H]1CC[C@H](N(C)c2[nH]cnc3nccc2-3)CC1` [Oclacitinib?maleate], the inhibition at 100 µM came to 0%. On to `CCCCCCCCN=c1ccn(CCCCCCCCCCn2ccc(=NCCCCCCCC)cc2)cc1` [Octenidine Dihydrochloride], for which the inhibition at 100 µM came out at 16%. Regarding `CCCCC(CC)COC(=O)C=Cc1ccc(OC)cc1` (stereo not drawn) [Octinoxate], the inhibition at 100 µM amounted to 0%. Regarding `CCCCC(CC)COC(=O)C(C#N)=C(c1ccccc1)c1ccccc1` (stereo not drawn) [Octocrylene], the inhibition at 100 µM stood at 0%. Turning to `O=C(c1cc(Cc2n[nH]c(=O)c3ccccc23)ccc1F)N1CCN(C(=O)C2CC2)CC1` [Olaparib (AZD2281, Ku-0059436)], the inhibition at 100 µM was 20.2%. `CCCc1nc(C(C)(C)O)c(C(=O)OCc2oc(=O)oc2C)n1Cc1ccc(-c2ccccc2-c2nnn[nH]2)cc1` [Olmesartan Medoxomil]: the inhibition at 100 µM was determined as 0%. Regarding `CCCc1nc(C(C)(C)O)c(C(=O)O)n1Cc1ccc(-c2ccccc2-c2nnn[nH]2)cc1` [Olmesartan], the inhibition at 100 µM was 0%. Consider `C=CC(=O)Nc1cccc(Oc2nc(Nc3ccc(N4CCN(C)CC4)cc3)nc3ccsc23)c1` [Olmutinib (HM61713, BI 1482694)], for which the inhibition at 100 µM was 22.3%. Take `CN(C)CC/C=C1/c2ccccc2COc2ccc(CC(=O)O)cc21` [Olopatadine HCl]: the inhibition at 100 µM turned out to be 2.14%. The same measure, in the same setting: for `Cc1[nH]c(=O)c(C#N)cc1-c1ccc2nccn2c1` [Olprinone] the value was 0%; for `O=C(O)c1cc(/N=N/c2ccc(O)c(C(=O)O)c2)ccc1O` [Olsalazine Sodium], 11.8%. As to `Cc1c(-c2cnccn2)ssc1=S` [Oltipraz], the inhibition at 100 µM turned out to be 0%. As for `CS(=O)(=O)n1cc2c(n1)CN([C@H]1CO[C@H](c3cc(F)ccc3F)[C@@H](N)C1)C2` [Omarigliptin (MK-3102)], the inhibition at 100 µM was 0%. In the case of `COc1ncc(-c2ccc3nccc(-c4ccnnc4)c3c2)cc1NS(=O)(=O)c1ccc(F)cc1F` [Omipalisib (GSK2126458, GSK458)], the inhibition at 100 µM amounted to 7.47%. Consider `CC(C)c1cc(C(=O)N2Cc3ccc(CN4CCN(C)CC4)cc3C2)c(O)cc1O` [Onalespib (AT13387)], for which the inhibition at 100 µM came out at 5.85%. On the same count and under the same terms, to `Cc1nccn1CC1CCc2c(c3ccccc3n2C)C1=O` (stereo not drawn) [Ondansetron Hydrochloride Dihydrate] belongs 0%; to `Cc1[nH]c(/C=C2\C(=O)Nc3ccccc32)c(C)c1CCC(=O)O` [Orantinib (TSU-68, SU6668)], 16.7%. The same measure, in the same setting: for `CCCCCCCCCCC[C@@H](C[C@@H]1OC(=O)[C@H]1CCCCCC)OC(=O)[C@H](CC(C)C)NC=O` [Orlistat] the value was 0%; for `Cc1ncc([N+](=O)[O-])n1CC(O)CCl` (stereo not drawn) [Ornidazole], 17.6%. With `O=C(O)c1cc(=O)[nH]c(=O)[nH]1` [Orotic acid (6-Carboxyuracil)], the inhibition at 100 µM amounted to 0%. For `CCOC(=O)C1=C[C@@H](OC(CC)CC)[C@H](NC(C)=O)[C@@H](N)C1` [Oseltamivir Phosphate], under “100 µM, inhibitor”, the “%inhibition” value is 4.261%. Turning to `C=CC(=O)Nc1cc(Nc2nccc(-c3cn(C)c4ccccc34)n2)c(OC)cc1N(C)CCN(C)C` [Osimertinib (AZD9291)], the inhibition at 100 µM worked out at 0%.

In the case of `OCCOc1ccc(/C(=C(/CCCl)c2ccccc2)c2ccccc2)cc1` [Ospemifene], the inhibition at 100 µM worked out at 16.8%.

With `CCNC1(C(N)=O)CCN(c2ncnc3c2nc(-c2ccccc2Cl)n3-c2ccc(Cl)cc2)CC1` [Otenabant (CP-945598) HCl], the inhibition at 100 µM was determined as 2.29%. The same measure, in the same setting: for `CCCCCCCCOc1ccccc1C(=O)Nc1ccc(C(=O)OCC[N+](C)(CC)CC)cc1` [Otilonium Bromide] the value was 11%.

In the case of `C[C@@H]1O[C@@H](O[C@H]2C[C@@H](O)[C@]3(CO)[C@H]4[C@H](O)C[C@]5(C)[C@@H](C6=CC(=O)OC6)CC[C@]5(O)[C@@H]4CC[C@]3(O)C2)[C@H](O)[C@H](O)[C@H]1O` [Ouabain], the inhibition at 100 µM came out at 0%. Consider `CC(=O)N1C[C@H](O)C[C@H]1C(=O)O` [Oxaceprol], for which the inhibition at 100 µM turned out to be 0%. Consider `Cc1onc(-c2ccccc2)c1C(=O)N[C@@H]1C(=O)N2[C@@H]1SC(C)(C)[C@@H]2C(=O)O` [Oxacillin sodium monohydrate], for which the inhibition at 100 µM is 0%. In the case of `O=C(O)CCc1nc(-c2ccccc2)c(-c2ccccc2)o1` [Oxaprozin], the inhibition at 100 µM worked out at 11.8%. As for `NC(=O)N1c2ccccc2CC(=O)c2ccccc21` [Oxcarbazepine], the inhibition at 100 µM stood at 0%. Same read-out and setting: to `CCN(CC)CCOCCOC(=O)C(CC)(CC)c1ccccc1` [Oxeladin Citrate] belongs 0.462%; to `CN(C(=O)CN(CCO)CC(=O)N(C)C(C)(C)Cc1ccccc1)C(C)(C)Cc1ccccc1` [Oxethazaine], 19.2%; to `COC(=O)Nc1nc2cc([S+]([O-])c3ccccc3)ccc2[nH]1` (stereo not drawn) [Oxfendazole], 0%. Consider `NCCc1cc(O)c(O)cc1O` [Oxidopamine (hydrobromide)], for which the inhibition at 100 µM stood at 0%. On the same count and under the same terms, for `NC(=O)CN1CC(O)CC1=O` (stereo not drawn) [Oxiracetam] the value was 21.6%; for `COc1ccc(C(=O)c2ccccc2)c(O)c1` [Oxybenzone], 0.0343%. The same measure, in the same setting: for `CCCCOc1cc(C(=O)OCCN(CC)CC)ccc1N` [Oxybuprocaine HCl] the value was 8.43%.

These data come from doi:10.1101/2021.10.07.463234v2 (biorxiv, 2021).
